Patent publication US11013696B2, “Lipids and lipid compositions for the delivery of active agents” (Novartis AG, priority 2013, dated 2021)

Assays:
[1] = Percent encapsulation of mRNA in lipid nanoparticles (Quant-iT Ribogreen); assay type: physicochemical; conditions: Table 2; leptin mRNA in LNP with the cationic lipid
Experimental: All equipment and disposable supplies are certified free of RNase activity by the manufacturer or rendered RNase free by use of the RNaseZap reagent (LifeTechnologies). mRNA is encapsulated at a cationic lipid amine to mRNA phosphate (N:P) molar ratio of 4:1. Lipids (cationic lipid, DSPC, cholesterol and lipidated PEG or stealth lipid) are dissolved in ethanol. The molar ratios are 40:10:38:2, respectively. The mixture is sonicated briefly, then gently agitated for 5 minutes and then maintained at 37° C. until use. mRNA is exchanged into citrate buffer pH 5.8-6.0 by use of Amicon Ultra-15 centrifugal concentrators, and the final concentration is adjusted to 0.5 mg/ml and held at 37° C. until use. An equal volume of lipids in ethanol, mRNA in citrate buffer, and citrate buffer alone are drawn into disposable syringes. Tubing leading from syringes containing lipids and mRNA are attached to the T junction, and tubing leading from the syringe containing citrate buffer alone is paired with the tubing exiting the T-junction over a collection vessel containing a stir bar on an active stir plate. Syringes are placed in a syringe pump set to expel contents at a flow rate of 1 ml per minute.
The pump is activated, and the collected mRNA in lipid nanoparticles is transferred to SnakeSkin dialysis tubing (10,000 MWCO, Thermo Scientific). Material is dialyzed against RNAse- and pyrogen-free 1× phosphate buffered saline overnight at 4° C.
Percent encapsulation of mRNA in lipid nanoparticles is determined using the Quant-iT Ribogreen RNA Assay kit (Life Technologies). The LNP-mRNA suspension is assayed in buffer (mRNA outside the particle), and buffer plus Triton X-100 detergent (total mRNA). The difference calculated is the mRNA inside the particle. Prepare a 1000 ng/mL stock from the RNA provided in the kit and use this to generate a standard curve (0 ng/ml, 15.63-1000 ng/ml) in TE and TE+0.75% Triton X-100. Prepare LNP-mRNA samples in TE buffer and TE buffer +0.75% Triton X-100 with appropriate dilution so that reading is in the range of standard curve (400-2,000 fold). In a 384-well plate (Costar non-treated #3573) add 0.04 ml of standard (in duplicate) or sample (in triplicate) per well. Dilute Ribogreen reagent 240-fold in TE buffer and add 0.06 ml per well. Mix contents of wells and measure fluorescence (excitation=480 nm, emission=520 nm). Subtract background values (no RNA) from standard and test sample values and determine the concentrations of RNA in the samples using the standard curves. Determine the percent encapsulation of the sample by dividing the difference in concentrations between sample+triton and sample in buffer alone by the sample+triton concentration.

[2] = siRNA encapsulation in lipid nanoparticles (SYBR Gold); assay type: physicochemical; conditions: Table 2; FVII siRNA in LNP with the cationic lipid
Experimental: The lipid nanoparticles (LNPs) were formed by mixing equal volumes of lipids dissolved in alcohol with siRNA dissolved in a citrate buffer by an impinging jet process. The lipid solution contains a cationic lipid compound of the invention, a helper lipid (cholesterol), an optional neutral lipid (DSPC) and a PEG (PEG) lipid at a concentration of 8-16 mg/mL with a target of 12 mg/mL in an alcohol. The siRNA to total lipid ratio is approximately 0.05 (wt/wt). Where a LNP formulation contains four lipid components, the molar ratios of the lipids ranges from 20 to 70 mole percent for the cationic lipid with a target of 40-60, the mole percent of helper lipid ranges from 20 to 70 with a target of 30 to 50, the mole percent of neutral lipid ranges from 0-30, the mole percent of PEG lipid has a range from 1 to 6 with a target of 2 to 5. The concentration of siRNA solution ranges from 0.7 to 1.0 mg/mL with a target of 0.8 to 0.9 mg/mL in a sodium citrate: sodium chloride buffer pH 4-6, with a target of 4.5-5.5. The LNPs are formed by mixing equal volumes of lipid solution in ethanol with siRNA dissolved in a citrate buffer by an impinging jet process through a mixing device with ID ranging from 0.25 to 2.0 mm at a flow rate from 10 to 640 mL/min. The mixed LNP solution is held at room temperature for 0-24 hrs prior to a dilution step. The solution is then concentrated and diafiltered with suitable buffer by ultrafiltration or dialysis process using membranes with a MW cutoff from 30 to 500 KD. The final product is sterile filtered and stored at 4° C.
The lipid nanoparticles (LNPs) were formed by mixing equal volumes of lipids dissolved in alcohol with siRNA dissolved in a citrate buffer by an impinging jet process. The lipid solution contains a cationic lipid compound of the invention, a helper lipid (cholesterol), an optional neutral lipid (DSPC) and a stealth lipid (5010, S024, S027, or S031) at a concentration of 8-16 mg/mL with a target of 12 mg/mL in an alcohol. The siRNA to total lipid ratio is approximately 0.05 (wt/wt). Where a LNP formulation contains four lipid components, the molar ratios of the lipids ranges from 20 to 70 mole percent for the cationic lipid with a target of 40-60, the mole percent of helper lipid ranges from 20 to 70 with a target of 30 to 50, the mole percent of neutral lipid ranges from 0-30, the mole percent of PEG lipid has a range from 1 to 6 with a target of 2 to 5. The concentration of siRNA solution ranges from 0.7 to 1.0 mg/mL with a target of 0.8 to 0.9 mg/mL in a sodium citrate: sodium chloride buffer pH 4-6, with a target of 4.5-5.5. The LNPs are formed by mixing equal volumes of lipid solution in ethanol with siRNA dissolved in a citrate buffer by an impinging jet process through a mixing device with ID ranging from 0.25 to 2.0 mm at a flow rate from 10 to 640 mL/min. The mixed LNP solution is held at room temperature for 0-24 hrs prior to a dilution step. The solution is then concentrated and diafiltered with suitable buffer by ultrafiltration process using membranes with a MW cutoff from 30 to 500 KD. The final product is sterile filtered and stored at 4° C.
SYBR Gold flourescence reagent is used for the determination of siRNA encapsulation in the DLP's. DLP's with and without triton x-100 are used to determine the free siRNA and total siRNA amounts. DLP's samples with and without triton X-100 were excited at 485 nm and flourescence emission is measured at 530 nm. Encapsulation efficiency is calculated based on the following formula: Encapsulation efficiency:[([…])/(total siRNA concentration)]×100% Encapsulation Data

SMILES | % encapsulation mRNA Leptin [1] | % encapsulation siRNA FVII [2]
CCCCCCCCCCCCC(CCOC(=O)CCCCCC(COC(=O)CCCCCCC)COC(=O)CCCCCCC)OC(=O)OCCCN(CC)CC (stereo not drawn) [Example 6, 2-(10-dodecyl-3-ethyl-8,14-dioxo-7,9,13-trioxa-3-azanonadecan-19-yl)propane-1,3-diyl dioctanoate] | 24.0% | 91.7%
CCCCCCCCCCCCC(CCOC(=O)CCCCCCC(COC(=O)CCCCCCC)COC(=O)CCCCCCC)OC(=O)OCCCN(CC)CC (stereo not drawn) [Example 9, 2-(10-dodecyl-3-ethyl-8,14-dioxo-7,9,13-trioxa-3-azaicosan-20-yl)propane-1,3-diyl dioctanoate] | 96.6% | 91.0%
CCCCCCCCCCCCC(CCOC(=O)CCCCCCC(COC(=O)CCCCCCC)COC(=O)CCCCCCC)OC(=O)OCCCN(C)C (stereo not drawn) [Example 10, 2-(9-dodecyl-2-methyl-7,13-dioxo-6,8,12-trioxa-2-azanonadecan-19-yl)propane-1,3-diyl dioctanoate] | 88.4% | 89.9%
CCCCCCCCCCCCC(CCOC(=O)CCC(OCCCCCCCC)OCCCCCCCC)OC(=O)OCCCN(CC)CC (stereo not drawn) [Example 11, 3-(((3-(diethylamino)propoxy)carbonyl)oxy)pentadecyl 4,4-bis(octyloxy)butanoate] | 98.2% | 89.7%
CCCCCCCCCCCCC(CCOC(=O)CCC(OCC(CCC)CCC)OCC(CCC)CCC)OC(=O)OCCCN(CC)CC (stereo not drawn) [Example 13, 3-(((3-(diethylamino)propoxy)carbonyl)oxy)pentadecyl 4,4-bis((2-propylpentyl)oxy)butanoate] | 81.1% | 90.3%
CCCCCCCCCCCCC(CCOC(=O)CCC(OCC(CCC)CCC)OCC(CCC)CCC)OC(=O)OCCCN(C)CC (stereo not drawn) [Example 14, 3-(((3-(ethyl(methyl)amino)propoxy)carbonyl)oxy)pentadecyl 4,4-bis((2-propylpentyl)oxy)butanoate] | 99.4% | 88.0%
CCCCCCCCCCCCC(CCOC(=O)CCC(OCC(CCC)CCC)OCC(CCC)CCC)OC(=O)OCCCN(C)C (stereo not drawn) [Example 15, 3-(((3-(dimethylamino)propoxy)carbonyl)oxy)pentadecyl 4,4-bis((2-propylpentyl)oxy)butanoate] | 98.9% | 91.0%
CCCCCCCCCCCCC(CCOC(=O)CCCCC(OCCCCCC)OCCCCCC)OC(=O)OCCCN(CC)CC (stereo not drawn) [Example 17, 3-(((3-(diethylamino)propoxy)carbonyl)oxy)pentadecyl 6,6-bis(hexyloxy)hexanoate] | 84.6% | 88.3%
CCCCCCCCCCCCC(CCOC(=O)CCCCCCC(OCC(CCC)CCC)OCC(CCC)CCC)OC(=O)OCCCN(CC)CC (stereo not drawn) [Example 21, 3-(((3-(diethylamino)propoxy)carbonyl)oxy)pentadecyl 8,8-bis((2-propylpentyl)oxy)octanoate] | 98.2% | 91.2%
CCCCCCCCCCCCC(CCOC(=O)CCCCCCC(OCC(CCC)CCC)OCC(CCC)CCC)OC(=O)OCCCN(C)CC (stereo not drawn) [Example 22, 3-(((3-(ethyl(methyl)amino)propoxy)carbonyl)oxy)pentadecyl 8,8-bis((2-propylpentyl)oxy)octanoate] | 99.2% | 91.7%
CCCCCCCCCCCCC(CCOC(=O)CCCCCCC(OCC(CCC)CCC)OCC(CCC)CCC)OC(=O)OCCCN(C)C (stereo not drawn) [Example 23, 3-(((3-(dimethylamino)propoxy)carbonyl)oxy)pentadecyl 8,8-bis((2-propylpentyl)oxy)octanoate] | 98.0% | 92.0%
CCCCC/C=C\C/C=C\CCCCCCCC(=O)OCCC(CCCCCCCCCCCC)OC(=O)OCCCN(C)CC (stereo not drawn) [Example 45, (9Z,12Z)-3-(((3-(ethyl(methyl)amino)propoxy)carbonyl)oxy)pentadecyl octadeca-9,12-dienoate] | 88.2% | 86.4%
CCCCCCCCCCCCCC(=O)OCC(COC(=O)CCCCCCCCCCCCC)OC(=O)CCC(CCCCCCCCCCCC)OC(=O)OCCCN(CC)CC (stereo not drawn) [Example 84, 2-((4-(((3-(diethylamino)propoxy)carbonyl)oxy)hexadecanoyl)oxy)propane-1,3-diyl ditetradecanoate] | 83.1% | 77.5%
CCCCCCCCCCCCC(CCC(=O)OC(COC(=O)CCCCCCCCCCC)COC(=O)CCCCCCCCCCC)OC(=O)OCCCN(CC)CC (stereo not drawn) [Example 88, 2-((4-(((3-(diethylamino)propoxy)carbonyl)oxy)hexadecanoyl)oxy)propane-1,3-diyl didodecanoate] | 39.2% | 77.4%
CCCCC/C=C\C/C=C\CCCCCCCC(=O)OCCN(CCOC(=O)CCCCCCC/C=C\C/C=C\CCCCC)C(=O)CCC(CCCCCCCCCCCC)OC(=O)OCCCN(CC)CC (stereo not drawn) [Example 103, (9Z,12Z)-10-dodecyl-3-ethyl-14-(2-((9Z,12Z)-octadeca-9,12-dienoyloxy)ethyl)-8,13-dioxo-7,9-dioxa-3,14-diazahexadecan-16-yl octadeca-9,12-dienoate] | 72.5% | 83.2%
